Data from ChEMBL document CHEMBL5649165, “The E3 ligase Cbl-b and TAM receptors regulate cancer metastasis via natural killer cells” (Nature, 2014).
Activity calls are given as the source filed them. No cut-off for these calls is given here.

Assays:
B16-F10 [1] = assay: Antitumor activity against mouse B16-F10 cells xenografted in Cbl-b+/+ mouse assessed as reduction in melanoma metastases in lungs at 0.5 mg/L, po administered for 16 days by haematoxylin and eosin staining based microscope analysis; format: functional, organism-based; conditions: time 16.0 day
B16-F10 [2] = assay: Antitumor activity against mouse B16-F10 cells xenografted in Cbl-b+/- mouse assessed as reduction in melanoma metastases in lungs at 0.5 mg/L, po administered for 16 days by haematoxylin and eosin staining based microscope analysis; format: functional, organism-based; conditions: time 16.0 day
B16-F10 [3] = assay: Antitumor activity against mouse B16-F10 cells xenografted in Cbl-b defective mouse assessed as reduction in melanoma metastases at 0.5 mg/L, po administered for 16 days by haematoxylin and eosin staining based microscope analysis; format: functional, organism-based; conditions: time 16.0 day
B16-F10 [4] = assay: Antitumor activity against mouse B16-F10 cells xenografted in Cbl-b+/+ mouse assessed as coagulation at 0.5 mg/L, po administered for 16 days by coagulometer analysis; format: functional, organism-based; conditions: time 16.0 day
B16-F10 [5] = assay: Antitumor activity against mouse B16-F10 cells xenografted in Cbl-b+/- mouse assessed as coagulation at 0.5 mg/L, po administered for 16 days by coagulometer analysis; format: functional, organism-based; conditions: time 16.0 day
RMA-S [6] = assay: Cytotoxicity against RMA-S cells overexpressing Rae1 in Cbl-b+/+ mouse by flow cytometry analysis; format: functional, cell-based
RMA-S [7] = assay: Cytotoxicity against RMA-S cells in Cbl-b+/+ mouse by flow cytometry analysis; format: functional, cell-based
4T1 = assay: Anticoagulant activity against mouse 4T1 cells xenografted in Balb/c mouse assessed as prothrombin time at 0.5 mg/L, po administered for 16 days by coagulometer analysis (reference value: 15.10 +/- 1.46 sec); format: functional; conditions: time 16 day
[8] = target: T1, Tyrosine-protein kinase Mer (Homo sapiens, UniProt Q12866)
T1 sequence (Q12866 whole entry): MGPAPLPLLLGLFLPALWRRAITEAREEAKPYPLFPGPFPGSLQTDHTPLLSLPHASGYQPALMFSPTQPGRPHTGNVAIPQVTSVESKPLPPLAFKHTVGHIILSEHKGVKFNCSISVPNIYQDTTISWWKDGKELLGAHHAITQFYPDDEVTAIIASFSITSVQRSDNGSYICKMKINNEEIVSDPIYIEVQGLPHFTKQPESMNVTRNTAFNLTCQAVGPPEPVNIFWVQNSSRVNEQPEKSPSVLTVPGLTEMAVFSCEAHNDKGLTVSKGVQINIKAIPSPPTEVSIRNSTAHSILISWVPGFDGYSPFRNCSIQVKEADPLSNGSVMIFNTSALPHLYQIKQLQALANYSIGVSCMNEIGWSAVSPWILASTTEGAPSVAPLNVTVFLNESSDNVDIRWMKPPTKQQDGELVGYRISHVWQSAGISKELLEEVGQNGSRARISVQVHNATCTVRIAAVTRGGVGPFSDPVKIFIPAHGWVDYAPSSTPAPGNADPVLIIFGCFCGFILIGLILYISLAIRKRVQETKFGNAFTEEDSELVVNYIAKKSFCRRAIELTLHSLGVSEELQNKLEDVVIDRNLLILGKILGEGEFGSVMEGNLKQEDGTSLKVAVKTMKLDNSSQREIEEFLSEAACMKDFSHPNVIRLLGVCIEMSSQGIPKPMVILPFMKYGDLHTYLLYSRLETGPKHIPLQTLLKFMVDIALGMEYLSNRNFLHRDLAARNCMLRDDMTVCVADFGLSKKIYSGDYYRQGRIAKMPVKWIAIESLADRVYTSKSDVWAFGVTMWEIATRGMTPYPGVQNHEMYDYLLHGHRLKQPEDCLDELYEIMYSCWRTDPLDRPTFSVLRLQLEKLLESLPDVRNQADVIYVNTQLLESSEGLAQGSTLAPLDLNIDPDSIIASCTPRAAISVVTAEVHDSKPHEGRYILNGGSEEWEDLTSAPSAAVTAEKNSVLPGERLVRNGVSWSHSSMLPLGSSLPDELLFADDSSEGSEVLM

[9] = target: Hepatocyte growth factor receptor (Homo sapiens, UniProt P08581)
Aurora kinase B = Aurora kinase B (Homo sapiens, UniProt Q96GD4)
[10] = target: Tyrosine-protein kinase Lck (Homo sapiens, UniProt P06239)
[11] = target: T2, Proto-oncogene tyrosine-protein kinase Src (Homo sapiens, UniProt P12931)
[12] = target: Cyclin-dependent kinase 8 (Homo sapiens, UniProt P49336)
[13] = target: Tyrosine-protein kinase Fer (Homo sapiens, UniProt P16591); assay: biochemical
[14] = target: T3, Dual specificity mitogen-activated protein kinase kinase 5 (Homo sapiens, UniProt Q13163); assay: biochemical
T3 sequence (Q13163 whole entry): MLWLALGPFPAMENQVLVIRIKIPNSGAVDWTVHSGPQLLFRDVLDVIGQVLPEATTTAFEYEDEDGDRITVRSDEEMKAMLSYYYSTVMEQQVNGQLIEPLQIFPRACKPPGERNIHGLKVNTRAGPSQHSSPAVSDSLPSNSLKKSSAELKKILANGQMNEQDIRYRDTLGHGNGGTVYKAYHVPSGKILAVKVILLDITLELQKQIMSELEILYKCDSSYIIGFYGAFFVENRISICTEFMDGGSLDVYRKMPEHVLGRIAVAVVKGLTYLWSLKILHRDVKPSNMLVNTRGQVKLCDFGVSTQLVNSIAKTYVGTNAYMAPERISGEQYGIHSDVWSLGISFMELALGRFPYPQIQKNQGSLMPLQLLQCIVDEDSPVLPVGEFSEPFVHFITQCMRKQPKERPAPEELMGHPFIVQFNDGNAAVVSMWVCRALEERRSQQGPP

[15] = target: Tyrosine-protein kinase ABL1 (Homo sapiens, UniProt P00519); assay: biochemical
[16] = target: T2, Proto-oncogene tyrosine-protein kinase Src; assay: biochemical

T2 sequence (P12931 whole entry, looked up): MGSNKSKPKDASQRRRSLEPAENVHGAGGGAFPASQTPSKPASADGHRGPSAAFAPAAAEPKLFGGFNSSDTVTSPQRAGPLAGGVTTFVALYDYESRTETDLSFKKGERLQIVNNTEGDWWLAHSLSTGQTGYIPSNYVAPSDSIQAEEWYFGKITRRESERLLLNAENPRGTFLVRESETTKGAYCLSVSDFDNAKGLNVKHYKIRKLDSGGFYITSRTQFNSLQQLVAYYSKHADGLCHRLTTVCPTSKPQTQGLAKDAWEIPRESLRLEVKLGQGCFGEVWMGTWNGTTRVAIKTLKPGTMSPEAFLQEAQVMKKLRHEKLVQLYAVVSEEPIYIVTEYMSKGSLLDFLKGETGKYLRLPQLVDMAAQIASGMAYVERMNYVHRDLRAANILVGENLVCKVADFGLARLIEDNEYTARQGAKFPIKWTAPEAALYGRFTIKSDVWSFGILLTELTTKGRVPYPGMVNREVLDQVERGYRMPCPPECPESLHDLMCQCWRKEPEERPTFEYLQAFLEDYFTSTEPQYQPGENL
Tyrosine-protein kinase Fer, sequence (P16591 whole entry): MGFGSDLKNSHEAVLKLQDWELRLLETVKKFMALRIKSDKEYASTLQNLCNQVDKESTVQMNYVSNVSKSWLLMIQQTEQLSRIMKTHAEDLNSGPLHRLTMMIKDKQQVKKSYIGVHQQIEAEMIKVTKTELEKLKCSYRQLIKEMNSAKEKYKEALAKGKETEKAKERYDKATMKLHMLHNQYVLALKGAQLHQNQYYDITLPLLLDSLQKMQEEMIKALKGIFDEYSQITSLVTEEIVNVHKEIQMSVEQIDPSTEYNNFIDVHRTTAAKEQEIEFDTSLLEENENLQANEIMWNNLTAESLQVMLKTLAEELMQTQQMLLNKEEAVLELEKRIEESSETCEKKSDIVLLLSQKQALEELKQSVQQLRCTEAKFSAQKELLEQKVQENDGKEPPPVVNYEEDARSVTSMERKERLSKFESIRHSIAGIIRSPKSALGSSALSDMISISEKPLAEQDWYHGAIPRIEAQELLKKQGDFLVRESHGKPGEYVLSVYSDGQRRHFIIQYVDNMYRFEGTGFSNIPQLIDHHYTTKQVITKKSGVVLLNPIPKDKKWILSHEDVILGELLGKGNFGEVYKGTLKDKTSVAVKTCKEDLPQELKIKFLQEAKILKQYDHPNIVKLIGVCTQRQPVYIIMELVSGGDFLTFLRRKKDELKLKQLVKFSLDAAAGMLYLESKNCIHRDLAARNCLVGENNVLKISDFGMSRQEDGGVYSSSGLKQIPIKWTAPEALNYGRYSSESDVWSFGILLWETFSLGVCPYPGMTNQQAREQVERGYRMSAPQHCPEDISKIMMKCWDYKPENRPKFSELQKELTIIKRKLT
Aurora kinase B, sequence (Q96GD4 whole entry): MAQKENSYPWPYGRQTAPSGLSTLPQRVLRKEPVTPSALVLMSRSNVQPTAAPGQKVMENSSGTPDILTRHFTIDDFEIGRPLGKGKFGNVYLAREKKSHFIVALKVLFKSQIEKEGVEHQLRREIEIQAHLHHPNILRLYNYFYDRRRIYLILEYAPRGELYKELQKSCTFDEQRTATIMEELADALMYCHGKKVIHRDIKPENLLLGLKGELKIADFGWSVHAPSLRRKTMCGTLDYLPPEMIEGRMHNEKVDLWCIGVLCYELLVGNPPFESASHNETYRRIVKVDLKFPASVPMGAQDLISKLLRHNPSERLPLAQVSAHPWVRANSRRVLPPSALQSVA
Tyrosine-protein kinase Lck, sequence (P06239 whole entry): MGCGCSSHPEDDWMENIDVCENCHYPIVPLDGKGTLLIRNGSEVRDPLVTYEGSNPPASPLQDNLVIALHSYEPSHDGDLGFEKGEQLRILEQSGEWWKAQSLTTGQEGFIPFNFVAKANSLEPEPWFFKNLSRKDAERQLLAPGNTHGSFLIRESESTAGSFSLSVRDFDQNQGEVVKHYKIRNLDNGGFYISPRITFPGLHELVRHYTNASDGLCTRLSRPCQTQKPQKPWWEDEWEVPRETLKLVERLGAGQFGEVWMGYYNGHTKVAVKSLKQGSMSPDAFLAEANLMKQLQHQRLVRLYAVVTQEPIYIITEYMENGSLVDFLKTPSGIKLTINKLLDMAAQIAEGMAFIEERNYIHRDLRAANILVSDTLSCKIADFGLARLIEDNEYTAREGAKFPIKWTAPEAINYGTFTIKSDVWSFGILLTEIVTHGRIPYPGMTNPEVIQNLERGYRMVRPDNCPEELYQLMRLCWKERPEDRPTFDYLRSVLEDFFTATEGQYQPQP
Hepatocyte growth factor receptor, sequence (P08581 whole entry): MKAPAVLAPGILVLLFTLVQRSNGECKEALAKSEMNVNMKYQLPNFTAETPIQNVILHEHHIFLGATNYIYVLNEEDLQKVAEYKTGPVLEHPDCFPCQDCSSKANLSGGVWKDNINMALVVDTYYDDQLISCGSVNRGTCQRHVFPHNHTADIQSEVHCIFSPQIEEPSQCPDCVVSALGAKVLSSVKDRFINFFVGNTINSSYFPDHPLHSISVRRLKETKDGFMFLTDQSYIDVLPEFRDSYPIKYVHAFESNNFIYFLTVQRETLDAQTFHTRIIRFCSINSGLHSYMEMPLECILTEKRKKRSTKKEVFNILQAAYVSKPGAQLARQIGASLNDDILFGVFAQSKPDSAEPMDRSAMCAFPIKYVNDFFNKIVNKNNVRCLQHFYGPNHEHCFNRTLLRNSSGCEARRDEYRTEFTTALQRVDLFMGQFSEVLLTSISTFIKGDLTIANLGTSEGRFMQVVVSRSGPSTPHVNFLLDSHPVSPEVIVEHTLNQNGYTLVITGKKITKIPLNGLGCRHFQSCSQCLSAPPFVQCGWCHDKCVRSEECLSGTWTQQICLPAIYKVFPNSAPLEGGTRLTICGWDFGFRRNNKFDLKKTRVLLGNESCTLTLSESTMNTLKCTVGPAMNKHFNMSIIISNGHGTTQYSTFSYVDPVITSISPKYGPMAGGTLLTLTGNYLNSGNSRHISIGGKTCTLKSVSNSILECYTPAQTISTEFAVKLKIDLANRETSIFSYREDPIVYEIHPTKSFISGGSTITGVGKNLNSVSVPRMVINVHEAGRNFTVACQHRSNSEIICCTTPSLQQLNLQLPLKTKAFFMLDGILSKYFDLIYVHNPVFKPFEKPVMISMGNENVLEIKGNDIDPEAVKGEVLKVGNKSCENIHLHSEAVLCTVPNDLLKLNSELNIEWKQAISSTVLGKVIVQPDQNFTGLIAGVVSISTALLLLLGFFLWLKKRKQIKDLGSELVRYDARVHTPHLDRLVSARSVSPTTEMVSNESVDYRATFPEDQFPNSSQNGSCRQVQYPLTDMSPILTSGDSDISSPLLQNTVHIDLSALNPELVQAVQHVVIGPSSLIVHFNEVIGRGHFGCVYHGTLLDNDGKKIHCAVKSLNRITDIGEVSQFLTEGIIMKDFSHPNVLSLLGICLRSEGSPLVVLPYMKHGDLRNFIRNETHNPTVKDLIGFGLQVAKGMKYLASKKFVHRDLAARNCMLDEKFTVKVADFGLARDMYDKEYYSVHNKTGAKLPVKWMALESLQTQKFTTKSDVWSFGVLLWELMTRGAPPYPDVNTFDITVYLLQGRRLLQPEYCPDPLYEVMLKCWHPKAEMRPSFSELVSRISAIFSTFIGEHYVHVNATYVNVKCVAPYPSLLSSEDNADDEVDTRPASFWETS
Tyrosine-protein kinase ABL1, sequence (P00519 whole entry): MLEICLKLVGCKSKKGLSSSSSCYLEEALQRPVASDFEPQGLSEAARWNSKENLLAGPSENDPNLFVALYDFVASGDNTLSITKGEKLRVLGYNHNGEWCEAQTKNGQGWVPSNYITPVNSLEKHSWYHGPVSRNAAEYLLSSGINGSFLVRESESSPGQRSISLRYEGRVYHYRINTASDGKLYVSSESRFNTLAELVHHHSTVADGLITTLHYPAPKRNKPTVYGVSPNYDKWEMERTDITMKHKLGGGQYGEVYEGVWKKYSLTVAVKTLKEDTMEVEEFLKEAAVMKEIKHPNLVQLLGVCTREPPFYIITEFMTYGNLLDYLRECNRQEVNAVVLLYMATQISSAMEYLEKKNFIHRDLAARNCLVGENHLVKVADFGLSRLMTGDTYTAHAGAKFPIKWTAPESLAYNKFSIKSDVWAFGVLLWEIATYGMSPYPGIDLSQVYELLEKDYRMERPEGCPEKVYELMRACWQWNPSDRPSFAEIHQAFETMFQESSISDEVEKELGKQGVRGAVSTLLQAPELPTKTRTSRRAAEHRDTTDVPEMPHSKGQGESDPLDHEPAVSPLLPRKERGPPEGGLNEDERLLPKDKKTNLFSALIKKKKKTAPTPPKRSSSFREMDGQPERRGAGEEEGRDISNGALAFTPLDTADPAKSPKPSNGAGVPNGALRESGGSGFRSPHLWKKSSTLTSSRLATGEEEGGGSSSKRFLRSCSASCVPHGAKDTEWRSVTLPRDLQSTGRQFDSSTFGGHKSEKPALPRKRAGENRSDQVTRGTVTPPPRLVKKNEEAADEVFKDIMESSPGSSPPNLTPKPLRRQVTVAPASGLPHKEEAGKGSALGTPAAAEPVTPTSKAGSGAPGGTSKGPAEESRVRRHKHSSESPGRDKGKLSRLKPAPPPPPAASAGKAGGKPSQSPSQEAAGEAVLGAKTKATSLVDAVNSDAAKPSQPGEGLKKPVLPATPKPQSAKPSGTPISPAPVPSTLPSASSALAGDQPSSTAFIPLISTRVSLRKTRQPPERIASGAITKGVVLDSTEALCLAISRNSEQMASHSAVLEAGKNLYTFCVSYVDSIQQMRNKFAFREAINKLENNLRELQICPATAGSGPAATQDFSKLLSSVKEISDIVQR

Row | Compound | Activity (B16-F10 [1]) | Activity (B16-F10 [2]) | Activity (B16-F10 [3]) | Activity (B16-F10 [4]) | Activity (B16-F10 [5]) | Activity (RMA-S [6]) | Activity (RMA-S [7]) | PT (4T1) [s] | IC50 [8] [nM] | IC50 [9] [nM] | IC50 (Aurora kinase B) [nM] | IC50 [10] [nM] | IC50 [11] [nM] | IC50 [12] [nM] | Kd [13] [nM] | Kd [14] [nM] | Kd [15] [nM] | Kd [16] [nM]
1 | CC(=O)CC(c1ccccc1)c1c(O)c2ccccc2oc1=O (stereo not drawn) [WARFARIN] | Active | Active | inactive | Active | Active | Active | Active | 19.13 |  |  |  |  |  |  |  |  |  | 
2 | CCOc1cn(-c2ccc(F)cc2C)nc1C(=O)Nc1ccc(Oc2ccnc3cc(OC)c(OC)cc23)c(F)c1 |  |  |  |  |  |  |  |  | < 5 | 35 | 36 | 51 | 338 | 3170 | 107 | 124 | 154 | 217
